{"source": "paper PMC3251870", "about": "(British Journal of Cancer, 2011)", "key": {"LOXIMVI melanoma cells": {"tested_on": "LOXIMVI melanoma cells", "assay": "MTS cell viability, LOXIMVI", "type": "cell-based, human", "conditions": "LOXIMVI, 4 days", "method": "(§1) All human cancer cell lines were maintained in RPMI media supplemented with 5% (lung and breast cancer cells) or 10% (melanoma cells) fetal bovine serum. […] Human mammary epithelial cells immortalised with telomerase were maintained in complete MEGM media from Cambrex (East Rutherford, NJ, USA).\n(§2) Absorbance at 490 and 650 nm (reference wavelength) was measured by a Spectra Max (Molecular Devices, Sunnyvale, CA, USA) or a FlouroStar Omega (BMG Biosciences, Ortenberg, Germany) plate reader. Data were normalised to the untreated controls (100% viability). Each cell line was tested in 1–5 independent assays, each containing 4–8 replicates. IC50 values were calculated using DIVISA, a high-throughput software, developed in-house (manuscript in preparation), for storing and analysing drug sensitivity assays. Dose–response curves were plotted using a non-linear regression model and IC50s were determined from the fitted curves."}, "[1]": {"tested_on": "HBEC30KT human bronchial epithelial cells", "assay": "MTS cell viability, HBEC30KT", "type": "cell-based", "conditions": "Homo sapiens, Epithelial cell, 96 h, HBEC30KT, 4 days", "method": "as §1, §2"}, "[2]": {"tested_on": "OCM1 uveal melanoma cells", "assay": "MTS cell viability, OCM1", "type": "cell-based, human", "conditions": "Homo sapiens, 96 h, 4 days", "method": "as §1, §2"}, "[3]": {"tested_on": "OMM2.3 uveal melanoma cells", "assay": "MTS cell viability, OMM2.3", "type": "cell-based, human", "conditions": "Homo sapiens, 96 h, 4 days", "method": "as §1, §2"}, "[4]": {"tested_on": "HCC4018 lung cancer cells", "assay": "MTS cell viability, HCC4018", "type": "cell-based, human", "conditions": "Homo sapiens, 96 h; HCC4018, MTS, 4 days", "method": "as §1, §2"}, "[5]": {"tested_on": "HBEC34KT human bronchial epithelial cells", "assay": "MTS cell viability, HBEC34KT", "type": "cell-based", "conditions": "Homo sapiens, Epithelial cell, 96 h, HBEC34KT, 4 days", "method": "as §1, §2"}, "[6]": {"tested_on": "MEL270 uveal melanoma cells", "assay": "MTS cell viability, MEL270", "type": "cell-based, human", "conditions": "Homo sapiens, 96 h, 4 days", "method": "as §1, §2"}, "[7]": {"tested_on": "HCC4017 lung cancer cells", "assay": "MTS cell viability, HCC4017", "type": "cell-based, human", "conditions": "Homo sapiens, 96 h; HCC4017, MTS, 4 days", "method": "as §1, §2"}, "[8]": {"tested_on": "patient-matched human bronchial epithelial cells/human non-small lung cancer cells (HBEC30KT/HCC4017, HBEC34KT/HCC4018)", "assay": "Cancer vs normal selectivity in patient-matched pairs (MTS viability)", "type": "cell-based", "method": "as §1, §2"}, "[9]": {"tested_on": "OCM3 uveal melanoma cells", "assay": "MTS cell viability, OCM3", "type": "cell-based, human", "conditions": "Homo sapiens, 96 h, 4 days", "method": "as §1, §2"}, "Melanocytes": {"tested_on": "Melanocytes", "assay": "MTS cell viability, primary melanocytes", "type": "cell-based, human", "conditions": "Homo sapiens, Melanocyte, 96 h, 4 days", "method": "as §1, §2"}, "SKMEL2 melanoma cells": {"tested_on": "SKMEL2 melanoma cells", "assay": "MTS cell viability, SKMEL2", "type": "cell-based, human", "conditions": "SK-MEL2, MTS, 4 days", "method": "as §1, §2"}, "H1437 cells": {"tested_on": "H1437 cells", "assay": "MTS cell viability, H1437", "type": "cell-based, human", "conditions": "cell viability, Supplementary Figure 2D", "method": "as §1, §2"}, "H2073 cells": {"tested_on": "H2073 cells", "assay": "MTS cell viability, H2073", "type": "cell-based, human", "conditions": "H2073 cells, verapamil plus depsipeptide", "method": "as §1, §2"}, "H1993 cells": {"tested_on": "H1993 cells", "assay": "MTS cell viability, H1993", "type": "cell-based, human", "conditions": "H1993 cells, verapamil plus depsipeptide", "method": "as §1, §2"}, "HCC15 cells": {"tested_on": "HCC15 cells", "assay": "MTS cell viability, HCC15", "type": "cell-based, human", "conditions": "cell viability, Supplementary Figure 2C", "method": "as §1, §2"}}}
{"smiles": "CCC(=O)CCCCC[C@@H]1NC(=O)[C@H]2CCCCN2C(=O)[C@H]([C@@H](C)CC)NC(=O)[C@H](Cc2cn(OC)c3ccccc23)NC1=O", "note": "[Apicidin, apicidin]", "values": [{"measurement": "sensitivity (position in drug sensitivity profile of melanoma panel)", "setting": "LOXIMVI melanoma cells", "result": "sensitive"}, {"measurement": "IC50", "setting": "[1]", "result": 90, "unit": "nM"}, {"measurement": "IC50", "setting": "[2]", "result": 700, "unit": "nM"}, {"measurement": "IC50", "setting": "[3]", "result": 400, "unit": "nM"}, {"measurement": "IC50", "setting": "[4]", "result": 30, "unit": "nM"}, {"measurement": "IC50", "setting": "[5]", "result": 790, "unit": "nM"}, {"measurement": "IC50", "setting": "[6]", "result": 650, "unit": "nM"}, {"measurement": "IC50", "setting": "[7]", "result": 120, "unit": "nM"}, {"measurement": "selectivity for cancer vs normal within a matched pair", "setting": "[8]; one matched lung cancer/HBEC pair", "result": "no selectivity"}, {"measurement": "selectivity for cancer vs normal within a matched pair", "setting": "[8]; second pair of lines", "result": "~25", "unit": "fold"}, {"measurement": "IC50", "setting": "[9]", "result": 4000, "unit": "nM"}, {"measurement": "IC50", "setting": "Melanocytes", "result": 200, "unit": "nM"}, {"measurement": "sensitivity (position in drug sensitivity profile of melanoma panel)", "setting": "SKMEL2 melanoma cells", "result": "on the sensitive side"}]}
{"smiles": "Nc1ccccc1NC(=O)c1ccc(CNC(=O)OCc2cccnc2)cc1", "note": "[MS-275]", "values": [{"measurement": "relative potency against H1437 vs HCC15 cells", "setting": "H1437 cells", "result": "more potent against H1437 cells than HCC15 cells"}]}
{"smiles": "COc1ccc(CCN(C)CCCC(C#N)(c2ccc(OC)c(OC)c2)C(C)C)cc1OC", "note": "(centres unmarked) [verapamil]", "values": [{"measurement": "restoration of sensitivity to depsipeptide by MDR1 inhibition", "setting": "H2073 cells", "result": "partly re-sensitised"}, {"measurement": "restoration of sensitivity to depsipeptide by MDR1 inhibition", "setting": "H1993 cells", "result": "not affecting"}]}
{"smiles": "O=C(CCCCCN1C(=O)c2cccc3cccc(c23)C1=O)NO", "note": "[Scriptaid]", "values": [{"measurement": "relative sensitivity of HCC15 compared with H1437 cells", "setting": "HCC15 cells", "result": "more sensitive"}]}
